Assay results taken from patent publication US20120258113A1, “SUSBSTANTIALLY PURE STEROIDOGENESIS INDUCING PEPTIDE AND USES THEREOF” (CLARK ATLANTA UNIVERSITY, priority 2006, published 2012).
Entries after “also recorded” stand apart in the source; their conditions may differ.

Columns and labels:
Leydig cells = test: Effect of kinase inhibitors on SIP-stimulated DNA synthesis in Leydig cells; type: cell-based, rat; settings: PD98059 25 μM; LY294002 5 μM; with SIP
Method: (§1) Immature rat Leydig cells and various cancer cell lines were starved for 48 hours before treatment. The cells were then treated with SIP, the polypeptide having the amino acid sequence identified as SEQ ID NO:2, LH, and EGF for 18 hours. The incubation media were collected (Leydig cells) and analyzed for total androgen production. ^3H-thymidine (1 μCi/ml) was added to the cells for further 4 hours incubation. Then the hot media were removed; ice-cold water was added to the cells which were lysed by sonication. The cell lysates were filterd through DE81 ion-exchanger filters. The filter membranes were then put in vials filled with scintillation fluid, and the radioactivity was measured by a Beckman β-counter.
Immature Leydig cells were cultured for 18 h and treated with different concentrations of oLH, SIP and EGF. For some experiments, the cells were treated with oLH or SIP for 18 h in the absence or presence of inhibitors of tyrosine kinase (Genistein; 10 uM), MAPK-kinase (PD98059; 25 μM), PI3-kinase (LY294002; 5 μM) or PKA (H89; 10 μM) to determine the intracellular signaling pathways involved in the effects of SIP on androgen production. The incubation media were collected and analyzed for total androgens using a radioimmunoassay, as described previously (Dickson et al., 2002). […] All samples were analyzed in the same assay, and the intra-assay coefficient of variation was <10%.

PI3-kinase/AKT pathway = test: Activation of PI3-kinase/AKT pathway in rat Leydig cells (activation specific antibodies); type: cell-based; settings: 30 min
Method: (§2) To determine the effects of SIP and EGF on activation of proteins involved in either MAP-kinase or PI3-kinase signaling pathway, immature Leydig cells were cultured in 6-well plates. The cells were washed and treated with SIP (50 μg/ml) or EGF (10 ng/ml) for 30 min in the presence or absence of inhibitors of MAPK-kinase (PD98059; 25 μM) or PI3-kinase (LY294002; 5 μM). The cells were washed twice with ice-cold phosphate-buffered saline and lysed in lysis buffer (Cell Signaling Technology, Beverly, Mass.) containing 20 mM Tris-HCl (pH 7.5), 150 mM NaCl, 1 mM Na2EDTA, 1 mM EGTA, 1% Triton, 2.5 mM sodium pyrophosphate, 1 mM β-glycerophosphate, 1 mM Na3VO4, 1 μg/ml leupeptin and 1× protease inhibitor cocktail (Calbiochem, San Diego, Calif.). Protein concentrations were determined by the Lowry HS assay using the Bio-Rad DCProtein Assay kit (Bio-Rad, Hercules, Calif.) according to the instruction provided by the manufacturer. Cell lysates were mixed with Lammeli's buffer (62.5 mM Tris, pH 6.8, 2% SDS, 5% β-mercaptoethanol and 10% glycerol), and individual samples (25 μg protein) were subjected to SDS-PAGE in 10% gels and transferred to PVDF membranes (Millipore). The membranes were blocked overnight at 4° C. in TBST (50 mM Tris, pH 7.5, containing 0.15M NaCl, 0.05% Tween-20 and 4% fat-free skimmed milk). […]

[1] = tested on: human ovarian epithelial cancer (HEY) cells; test: Thymidine incorporation assay (DNA synthesis) in HEY cells; type: cell-based; settings: different doses of peptide
Method: (§3) Ovarian (HEY, SKA), prostate (DU145, PC3) and breast (MCF7) cancer cell lines were cultured and maintained using well-established culture procedures.
as §1

[2] = tested on: immature rat Leydig cells; test: Thymidine incorporation assay (DNA synthesis) in immature rat Leydig cells; type: cell-based; settings: 3H-thymidine incorporation
Method: Immature rat Leydig cells (ILC) were isolated from 10-day old rat testes and cultured with serum-free medium before treatment. Immature rats were sacrificed at 10 days of age, and the testes were removed Immature Leydig cells were isolated and cultured. The decapsulated testes were incubated for 5 min in culture medium containing 0.25 mg collagenase/ml (Type I, Sigma) in shaking water bath. The seminiferous tubules were allowed to settle at unit gravity for 5 min, and the supernatant containing the suspension of interstitial cells was removed. The supernatant was centrifuged at 90×g for 10 min, and the cell pellet was washed twice by re-suspension in fresh medium followed by centrifugation. […] Immature Leydig cells cultured in 24-well plates (2×10^5 cells/well) were treated with several doses of oLH for 48 h, and the conditioned media were analyzed for androgen content.
Immature rat Leydig cells and various cancer cell lines were starved for 48 hours before treatment. […] The incubation media were collected (Leydig cells) and analyzed for total androgen production. ^3H-thymidine (1 μCi/ml) was added to the cells for further 4 hours incubation. […] The filter membranes were then put in vials filled with scintillation fluid, and the radioactivity was measured by a Beckman β-counter.

rat Leydig cells = test: Testosterone production by rat Leydig cells (radioimmunoassay); type: cell-based; settings: cultured 6, 24 or 48 hours; for testosterone production: radioimmunoassay
Method: Immature rat Leydig cells (ILC) were isolated from 10-day old rat testes and cultured with serum-free medium before treatment. Immature rats were sacrificed at 10 days of age, and the testes were removed Immature Leydig cells were isolated and cultured. The decapsulated testes were incubated for 5 min in culture medium containing 0.25 mg collagenase/ml (Type I, Sigma) in shaking water bath. The seminiferous tubules were allowed to settle at unit gravity for 5 min, and the supernatant containing the suspension of interstitial cells was removed. The supernatant was centrifuged at 90×g for 10 min, and the cell pellet was washed twice by re-suspension in fresh medium followed by centrifugation. The cell suspension was plated in 24-well tissue culture plates (Nunclon; Nunc, Roskilde, Denmark; 2×10^5 cells/well) or in 6-well plates (2×10^6 cells/well) depending upon the end point of the experiment. The cells were cultured at 37° C. in a humidified atmosphere of 5% CO2 and 95% air in serum-free medium. After 1 h, the immature Leydig cells were well attached to the surface of the culture plates, whereas contaminating cells (Sertoli cells, germ cells, precursor Leydig cells) were loosely attached. The cells were washed three times with medium to remove loosely attached cells. At this stage, the cell preparation contains more than 90% immature Leydig cells. Immature Leydig cells cultured in 24-well plates (2×10^5 cells/well) were treated with several doses of oLH for 48 h, and the conditioned media were analyzed for androgen content.
Immature Leydig cells were cultured for 18 h and treated with different concentrations of oLH, SIP and EGF. […] The incubation media were collected and analyzed for total androgens using a radioimmunoassay, as described previously (Dickson et al., 2002). […] All samples were analyzed in the same assay, and the intra-assay coefficient of variation was <10%.

StAR mRNA = StAR mRNA expression in rat Leydig cells (RT-PCR); type: cell-based; settings: Leydig cells treated for 24 hour
Method: Total RNA was isolated from Leydig cells using TRIzol (Invitrogen, Carlsbad, Calif.) followed by chloroform extraction and isopropanol precipitation. Two micrograms of total RNA were reverse transcribed at 37° C. for 1 h in a reaction mixture containing 0.5 mM dNTP (Fisher Scientific), 400 U of M-MLV Reverse Transcriptase (Promega), 1×RT buffer, 0.5 mM dithiotreitol (Bio-Rad) and 0.5 μg of oligo dT (Promega). After incubation, the RT enzyme was heat inactivated at 70° C. for […] and the reaction cooled to 4° C. Four microliters of RT reactions were added to separate PCR reaction mixtures (total 10 μl) containing 0.1 mM dNTPs, (Fisher), 0.5 U Tag DNA polymerase (PGC Scientifics, Frederick, Md.), 1×PCR buffer with 3 mM MgC12 (Idaho Technology, Salt Lake City, Utah) and […] of the specific primers for the following genes: scavenger receptor B type 1 (SR-B1), cytochrome P450 cholesterol side-chain cleavage (P450scc), 3β-hydroxysteroid dehydrogenase (3β-HSD), 17 alpha-hydroxylase/C17-20 lyase (P450c17) and steroidogenic acute regulatory (StAR) protein. L19 (a ribosomal protein) primer pair was used as internal control. The following protocol was used in the Rapid Cycler thermal cycler (Idaho Technology): 94° C. for 15 s (initial denaturation), followed by 94° C. for 0 s, 60° C. for 0 s, 72° C. for 20 s for 35 cycles, and 72° C. for 30 s (final extension). […]

StAR protein = StAR protein expression in rat Leydig cells (Western blotting); type: cell-based; settings: Leydig cells treated for 24 hour, listed as synthetic peptide 2
[3] = tested on: tyrosine phosphorylation of Leydig cell proteins; test: Tyrosine phosphorylation of Leydig cell proteins (phospho-tyrosine immunoblot); type: cell-based, rat; settings: Leydig cells treated for 30 minutes; listed as synthetic peptide 2
Method: as §2

[4] = tested on: MAP-kinase signaling pathway (Ras, MEK, ERK); test: Activation of MAP-kinase signaling pathway in Leydig cells (activation specific immunoblots); type: cell-based, rat; settings: 30 minutes
Method: as §2

[5] = tested on: immature rat Leydig cells and ovarian, prostate and liver cancer cell lines; test: DNA synthesis in Leydig cells and cancer cell lines (summary of FIGS. 8-10); type: cell-based
Method: as §3, §1

| Compound | effect of inhibitor on SIP effects on DNA synthesis (Leydig cells) | activation of PI3-kinase/AKT pathway (AKT phosphorylation) (PI3-kinase/AKT pathway) | activation of PI3-kinase/AKT pathway (AKT phosphorylation) (PI3-kinase/AKT pathway; listed as synthetic peptide 2) | DNA synthesis [1] | DNA synthesis [2] | testosterone production compared with purified SIP (rat Leydig cells) | testosterone production (rat Leydig cells; listed as SEQ ID NO:2) | testosterone production (rat Leydig cells; listed as synthetic SIP peptide 2) | expression of StAR mRNA (StAR mRNA) | expression of StAR protein (StAR protein) | tyrosine phosphorylation of cell proteins [3] | activation of MAP-kinase pathway (Ras, MEK, ERK1/ERK2 phosphorylation) [4] | activation of MAP-kinase pathway (Ras, MEK, ERK1/ERK2 phosphorylation) ([4]; listed as synthetic peptide 2) | DNA synthesis in different cells [5] |
| --- | --- | --- | --- | --- | --- | --- | --- | --- | --- | --- | --- | --- | --- | --- |
| COc1cccc(-c2cc(=O)c3ccccc3o2)c1N [PD98059] | blocks the effects of SIP on DNA synthesis |  |  |  |  |  |  |  |  |  |  |  |  |  |
| DVNGGGATLPQPLYQTA [peptide 2] |  | activated | significant induction of phosphorylation | capable of exerting mitogenic effects | capable of inducing proliferation of immature rat Leydig cells | not as high as those observed with purified SIP | significant stimulation of testosterone production | stimulation of testosterone production | induce the expression of StAR mRNA | stimulated the induction of StAR protein; also recorded: induce the expression of protein | induces the phosphorylation of several proteins at tyrosine; also recorded: capable of binding to SIP receptors and initiating signaling cascade | activated | significant induction of phosphorylation | significant stimulation of DNA synthesis |
